According to article PMC13108699, “Mass balance and metabolite profiling of ^14C-Zalunfiban in humans following single-dose subcutaneous administration” (Xenobiotica; the fate of foreign compounds in biological …, 2025):
Read-outs that look alike come from different tables or passages of the source.

Key:
[1] = Whole blood zalunfiban and M1 concentrations (LC-MS/MS) and non-compartmental PK, phase 1 mass balance study; type: in vivo, human; conditions: for Cmax / Tmax / AUC(0-inf) / AUC(0-t) / k el / Vd/F / half-life: male, human, whole blood; for AUC(0-inf): read-out: AUC0-inf, whole blood zalunfiban; for AUC(0-t): read-out: AUC0-last, whole blood zalunfiban; for k el: read-out: Kel, whole blood zalunfiban (converted); for Vd/F: read-out: Vz/F, whole blood zalunfiban; for half-life: read-out: t1/2, whole blood zalunfiban (converted)
From the text: This was a Phase 1, single-centre, open-label, non-controlled, mass balance and metabolite profiling study of ^14C-radiolabeled zalunfiban in health male volunteers (NCT04284995). The planned participant enrolment size was 8, with 2 additional alternate participants available on the morning of dosing. Following a 28-day screening period, all eligible participants were admitted to the research unit the evening before dosing. After fasting overnight, participants completed a standard breakfast prior to dosing on study day 1. After dosing, subjects fasted for 4 h. Fluids were permitted ad libitum starting 1-hour after dosing. The investigational product (IP) was injected SC on study day 1 and participants were housed for 11 days, which is past the final 240-hour sampling time, and then discharged following final evaluation. The clinical study was conducted at the Pharmaron Clinical Pharmacology Centre (Baltimore, MD) and the study protocol, consent forms and regulatory documents were reviewed and approved by the Advarra Institutional Review Board (Columbia, MD).
All participants received the same fixed mass dose of SC 9.5 mg ^14C-zalunfiban (5 μCi), in 0.5 mL of formulation solution. This zalunfiban dose was chosen to both ensure participant safety and to make certain the study results were clinically relevant. For the latter, by strict inclusion of participants with a body weight within the range of 73–99 kg, the zalunfiban doses were no higher than the highest administered in the currently ongoing Phase 3 study, which includes three groups of 0.110 mg/kg zalunfiban, 0.130 mg/kg zalunfiban, and placebo ([NIH 2025]). The ^14C radiolabel dose of 5 μCi presented minimal radiation risk to healthy subjects while providing a high likelihood of meeting the study objectives.
Serial blood samples were collected to determine zalunfiban and its major metabolite des-gly-zalunfiban (M1) whole blood concentrations, additional whole blood metabolite profiling, and total whole blood ^14C at pre dose (−60 min); 5, 10, 15, 30 and 45 min; and 1, 1.5, 2, 2.5, 3, 4, 6, 8, 12, 16, 24, 36, 48, 72, 96, 120, 144, 168, 192, 216 and 240 h after dosing. Blood samples were taken via an indwelling IV catheter or by direct venipuncture into designated blood collection tubes, with K2 EDTA used as an anticoagulant. Study samples were diluted immediately after blood collection, at a ratio of 1:4 using prechilled 30% acetonitrile, then separated into storage tubes and immediately frozen at −80°C for shipment to the analytical laboratory. At the laboratory, extraction of ^14C-zalunfiban from whole blood was achieved by repeated microcentrifugation, vortex mixing, and harvesting to collect analytes (see Metabolite profiling and excretion for more details).
Zalunfiban and M1 whole blood concentrations were measured using a validated LC-MS/MS method in compliance with the ICH-M10 guideline. The method utilised a Sciex 5500 mass spectrometer, Shimadzu LC30AD HPLC system, and a Shimadzu AD multiplate autosampler. Mobile phase A (MPA) was 10 mM ammonium acetate with 0.1% ammonium hydroxide and mobile phase B (MPB) was 10 mM ammonium acetate with acetonitrile:ammonium hydroxide. An Acquity UPLC BEH Hilic 1.7 micrometer column (Waters Corporation) was used at a temperature of 50 °C. The column flow rate was 0.4 mL/min and injection volumes were 2.0 microliters. The gradient for analytical pumps was set at 30% MAP and 70% MPB.
For whole blood LC-MS/MS the calibration ranges were 5.00–500.00 ng/mL for zalunfiban and 25.00–2500.00 ng/mL for M1. Zalunfiban and M1 sample concentrations below 5 ng/mL and 25 ng/mL, respectively, were reported as below the lower limit of quantification (<LLOQ).
Zalunfiban and whole blood radioactivity concentrations were used to calculate PK parameters using standard non-compartmental analysis (NCA) methods using Phoenix WinNonlin software (Phoenix, Princeton, NJ). […]

[2] = test system: platelet aggregation; experiment: In vitro inhibition of ADP-induced platelet aggregation in platelet-rich plasma; type: cell-based, human; conditions: Homo sapiens, Platelet, 20 min; PRP, 20 min at 22°C, ADP-initiated aggregation
Protocol: Ten mL of whole blood was collected from healthy human donors via venipuncture and treated with an anticoagulant (D-phenylalanyl-prolyl-arginyl chloromethyl ketone). From this, platelet-rich plasma (PRP) was prepared by centrifuging whole blood at room temperature at 650 × g for 4 min. PRP was removed and standardised to a uniform platelet concentration of 3.0 × 10^5/μL, using platelet poor plasma as a diluent, where necessary. […] Platelet aggregation was measured using an aggregometer (PAP-8E C/N 106075; Bio/Data Corp, Horsham PA). For M1 a range of concentrations was tested to produce a single fitted curve, and the Levenberg-Marquardt approach was used to calculate IC50 values.

[3] = Safety assessments (adverse events, laboratory, vital signs, ECG); type: in vivo, human; conditions: for Tolerability: single SC 9.5 mg, 8 healthy males
Protocol: The study was reviewed, approved, and monitored by both an independent Institutional Review Board and a Data Safety Monitoring Board, and the protocol was performed under an Investigational New Drug Application. The safety of single-dose SC zalunfiban was evaluated by monitoring adverse events, clinical laboratory data, vital signs, 12-lead electrocardiogram, and physical examination. Vital signs (blood pressure, heart rate, body temperature, respiratory rate) were measured at screening, admission, pre-dose, post-dose at 1, 4, 8, hours, and in the morning on study days 2–11. Safety laboratory tests included serum chemistry, haematology, coagulation, and urinalysis, and were performed at screening, admission, and on study days 1, 4, and 11. On day 1, additional platelet counts were performed post-dose at 2, 6, and 12 h. […] Participants were continuously monitored for adverse events (AEs) and new use of medication(s).
During the study, AEs were collected from the time of informed consent to the last time the participant was seen. Any AE that occurred after the start of study drug administration was considered a treatment-emergent AE (TEAE). The investigator or designee assessed the severity of all AEs using the toxicity grading scale in National Cancer Institute Common Terminology Criteria for Adverse Events v5.0. These scales assign a grade of 1 through 5 to indicate the severity of AEs.

[4] = geometric mean, n=8, single SC 9.5 mg
[5] = sc, 9.5 mg, geometric mean, n=8, single SC 9.5 mg
[6] = sc, 9.5 mg, mean, n=8, single SC 9.5 mg
[7] = sc, 9.5 mg, median, n=8, single SC 9.5 mg

NCC(=O)Nc1cncc(-c2nn3c(=O)cc(N4CCNCC4)nc3s2)c1 [Zalunfiban, 2-amino-N-{5-[5-oxo-7-(piperazin-1-yl)-5H-[1,3,4]thia-diazolo[3,2-a]pyrimidin-2-yl]pyridin-3-yl}acetamide]
Time of last measurable whole blood zalunfiban concentration ([1]; all participants): ≤ 4 h
CL/F, whole blood zalunfiban [1, 4]: 80.7 L/h
tlast, whole blood zalunfiban [1, 4]: 3.4 h
Cmax [1, 5]: 94.6 ng/mL
Tmax [1, 5]: 15 min
AUC(0-inf) [1, 5]: 116 ng·h/mL
AUC(0-t) [1, 5]: 107 ng·h/mL
k el [1, 5]: 0.00021 s⁻¹
Vd/F [1, 5]: 107 L
half-life [1, 5]: 55.2 min
half-life ([1]; sc, 9.5 mg, mean terminal half-life, n=8, single SC 9.5 mg): ~60 min
Tmax [1, 6]: 15.6 min
Cmax ([1]; sc, 9.5 mg, mean, n=8, single SC 9.5 mg ^14C-zalunfiban): 95.2 ng/mL
AUC(0-inf) [1, 6]: 118 ng·h/mL
AUC(0-t) [1, 6]: 109 ng·h/mL
k el [1, 6]: 0.000218 s⁻¹
Vd/F [1, 6]: 114 L
Cmax [1, 7]: 96.9 ng/mL
Tmax [1, 7]: ~15 min
AUC(0-inf) [1, 7]: 123 ng·h/mL
AUC(0-t) [1, 7]: 114 ng·h/mL
k el [1, 7]: 0.000229 s⁻¹
half-life [1, 7]: 50.4 min
Tmax ([1]; subcutaneous, 9.5 mg, median): 15 min
Vd/F ([1]; median, n=8, single SC 9.5 mg): 96.6 L
CL/F, whole blood zalunfiban ([1]; mean, n=8, single SC 9.5 mg): 81.8 L/h
tlast, whole blood zalunfiban ([1]; mean, n=8, single SC 9.5 mg): 3.4 h
CL/F, whole blood zalunfiban ([1]; median, n=8, single SC 9.5 mg): 76.3 L/h
tlast, whole blood zalunfiban ([1]; median, n=8, single SC 9.5 mg): 3.5 h
IC50 [2]: 112 nM
TEAE headache ([3]; 1 grade 1 and one grade 2, of 8 dosed): 2 participants
Changes in clinical laboratory tests, vital signs, or ECGs ([3]; 8 dosed): no observed clinically significant changes
Serious TEAEs ([3]; 8 dosed): no serious TEAEs
TEAEs leading to study discontinuation ([3]; 8 dosed): no TEAEs leading to study discontinuation
TEAE confusion ([3]; grade 1, of 8 dosed): 1 participant
TEAE injection site bruising ([3]; grade 1, of 8 dosed): 1 participant
TEAE injection site pain ([3]; grade 1, of 8 dosed): 1 participant
Participants with Grade 1 AEs ([3]; of 8 dosed): 4 participants
Participants with a Grade 2 AE ([3]; of 8 dosed): 1 participant
Tolerability [3]: well-tolerated
Tolerability ([3]; listed as 14C-zalunfiban): safe and well-tolerated
